Experimental data taken from ChEMBL document CHEMBL3044588, “Microwave-mediated synthesis of triazolothiadiazoles as anti-inflammatory, analgesic, and anti-oxidant agents” (Med Chem Res, 2012).
Active and inactive are the calls of the source. The calls are words filed in the database; no cut-off is given here.

Key:
[1] = system: Rattus norvegicus; assay: Anti-inflammatory activity in Rattus norvegicus Wistar albino (rat) assessed as inhibition of carrageenan-induced paw edema at 20 mg/kg, po administered 30 min before carrageenan challenge measured after 0.5 hr relative to control; format: functional
[2] = system: Radical scavenging activity; assay: Antioxidant activity assessed as DPPH free radical scavenging activity at 100 ug/ml after 30 min; format: functional
[3] = system: Mus musculus; assay: Analgesic activity in po dosed Mus musculus Swiss albino (mouse) assessed as increase in reaction time after 1.5 hr by tail-flick method relative to control; format: functional
[4] = system: Mus musculus; assay: Analgesic activity in po dosed Mus musculus Swiss albino (mouse) assessed as increase in reaction time after 1 hr by tail-flick method relative to control; format: functional
[5] = system: Mus musculus; assay: Analgesic activity in po dosed Mus musculus Swiss albino (mouse) assessed as increase in reaction time after 0.5 hr by tail-flick method relative to control; format: functional
[6] = system: Rattus norvegicus; assay: Anti-inflammatory activity in Rattus norvegicus Wistar albino (rat) assessed as inhibition of carrageenan-induced paw edema at 20 mg/kg, po administered 30 min before carrageenan challenge measured after 3 hr relative to control; format: functional
[7] = system: Rattus norvegicus; assay: Anti-inflammatory activity in Rattus norvegicus Wistar albino (rat) assessed as inhibition of carrageenan-induced paw edema at 20 mg/kg, po administered 30 min before carrageenan challenge measured after 2.5 hr relative to control; format: functional
[8] = system: Rattus norvegicus; assay: Anti-inflammatory activity in Rattus norvegicus Wistar albino (rat) assessed as inhibition of carrageenan-induced paw edema at 20 mg/kg, po administered 30 min before carrageenan challenge measured after 2 hr relative to control; format: functional
[9] = system: Rattus norvegicus; assay: Anti-inflammatory activity in Rattus norvegicus Wistar albino (rat) assessed as inhibition of carrageenan-induced paw edema at 20 mg/kg, po administered 30 min before carrageenan challenge measured after 1.5 hr relative to control; format: functional
[10] = system: Rattus norvegicus; assay: Anti-inflammatory activity in Rattus norvegicus Wistar albino (rat) assessed as inhibition of carrageenan-induced paw edema at 20 mg/kg, po administered 30 min before carrageenan challenge measured after 1 hr relative to control; format: functional
[11] = system: Mus musculus; assay: Analgesic activity in Mus musculus Swiss albino (mouse) assessed as increase in reaction time at 10 mg/kg, po after 0.5 hr by tail-flick method relative to control; format: functional
[12] = system: Mus musculus; assay: Analgesic activity in Mus musculus Swiss albino (mouse) assessed as increase in reaction time at 10 mg/kg, po after 1.5 hr by tail-flick method relative to control; format: functional
[13] = system: Mus musculus; assay: Analgesic activity in Mus musculus Swiss albino (mouse) assessed as increase in reaction time at 10 mg/kg, po after 1 hr by tail-flick method relative to control; format: functional
[14] = system: Rattus norvegicus; assay: Ulcerogenic activity in Rattus norvegicus Wistar albino (rat) assessed as ulcer index at 200 mg/kg, po after 17 hr; format: toxicity, organism-based; design: dose 200 mg/kg, route oral; conditions: in vivo
[15] = Antioxidant activity assessed as nitric oxide radical scavenging activity at 40 ug/ml after 150 min by Griess Illosvoy reaction; format: functional
[16] = Antioxidant activity assessed as nitric oxide radical scavenging activity at 20 ug/ml after 150 min by Griess Illosvoy reaction; format: functional
[17] = Antioxidant activity assessed as superoxide radical scavenging activity at 100 ug/ml after 5 min by NBT reduction assay; format: functional
[18] = Antioxidant activity assessed as superoxide radical scavenging activity at 80 ug/ml after 5 min by NBT reduction assay; format: functional
[19] = Antioxidant activity assessed as superoxide radical scavenging activity at 60 ug/ml after 5 min by NBT reduction assay; format: functional
[20] = Antioxidant activity assessed as superoxide radical scavenging activity at 40 ug/ml after 5 min by NBT reduction assay; format: functional
[21] = Antioxidant activity assessed as superoxide radical scavenging activity at 20 ug/ml after 5 min by NBT reduction assay; format: functional
[22] = Antioxidant activity assessed as hydroxyl radical scavenging activity at 80 ug/ml after 4 hr; format: functional
[23] = Antioxidant activity assessed as hydroxyl radical scavenging activity at 100 ug/ml after 4 hr; format: functional
[24] = Antioxidant activity assessed as hydroxyl radical scavenging activity at 60 ug/ml after 4 hr; format: functional
[25] = Antioxidant activity assessed as hydroxyl radical scavenging activity at 40 ug/ml after 4 hr; format: functional
[26] = Antioxidant activity assessed as hydroxyl radical scavenging activity at 20 ug/ml after 4 hr; format: functional
[27] = system: Staphylococcus aureus; assay: Antibacterial activity against Staphylococcus aureus by well diffusion method; format: functional, organism-based
[28] = system: Aspergillus; assay: Antifungal activity against Aspergillus by well diffusion method; format: functional, organism-based
[29] = system: Escherichia coli; assay: Antibacterial activity against Escherichia coli by well diffusion method; format: functional, organism-based
[30] = system: Rattus norvegicus; assay: Ulcerogenic activity in Rattus norvegicus Wistar albino (rat) assessed as ulcer index at equimolar dose of relative to 200 mg/kg of ibuprofen, po after 17 hr; format: toxicity, organism-based; design: dose 200 mg/kg, route oral; conditions: in vivo
[31] = Antioxidant activity assessed as nitric oxide radical scavenging activity at 100 ug/ml after 150 min by Griess Illosvoy reaction; format: functional
[32] = Antioxidant activity assessed as nitric oxide radical scavenging activity at 80 ug/ml after 150 min by Griess Illosvoy reaction; format: functional
[33] = Antioxidant activity assessed as nitric oxide radical scavenging activity at 60 ug/ml after 150 min by Griess Illosvoy reaction; format: functional

SMILES: CCc1nn2c(C(C)c3ccc(CC(C)C)cc3)nnc2s1 (stereo not drawn)
- inhibition in vivo at 20 mg/kg [1]: 5%
- inhibition [2]: 5.61%
- Activity [3]: 30.06%
- Activity [4]: 16.33%
- Activity [5]: 7.18%
- inhibition in vivo at 20 mg/kg [6]: 55%
- inhibition in vivo at 20 mg/kg [7]: 44%
- inhibition in vivo at 20 mg/kg [8]: 45%
- inhibition in vivo at 20 mg/kg [9]: 49%
- inhibition in vivo at 20 mg/kg [10]: 22%

SMILES: CC(C)Cc1ccc(C(C)C(=O)O)cc1 (stereo not drawn) [IBUPROFEN]
- inhibition in vivo at 20 mg/kg [1]: 20%
- Activity [11]: 11.73%
- Activity [12]: 30.04%
- Activity [13]: 22.53%
- inhibition in vivo at 20 mg/kg [6]: 42%
- inhibition in vivo at 20 mg/kg [7]: 39%
- inhibition in vivo at 20 mg/kg [8]: 36%
- inhibition in vivo at 20 mg/kg [9]: 25%
- inhibition in vivo at 20 mg/kg [10]: 18%
- UI [14]: 29.37

SMILES: CCCc1nn2c(C(C)c3ccc(CC(C)C)cc3)nnc2s1 (stereo not drawn)
- inhibition in vivo at 20 mg/kg [1]: 10%
- inhibition [15]: 26.7%
- inhibition [16]: 14.3%
- inhibition [17]: 58.6%
- inhibition [18]: 53%
- inhibition [19]: 42.4%
- inhibition [20]: 36.4%
- inhibition [21]: 24.5%
- inhibition [22]: 56.4%
- inhibition [23]: 62.4%
- inhibition [24]: 44.2%
- inhibition [25]: 38.7%
- inhibition [26]: 26.1%
- inhibition [2]: 77.9%
- inhibition in vivo at 20 mg/kg [6]: 34%
- inhibition in vivo at 20 mg/kg [7]: 31%
- inhibition in vivo at 20 mg/kg [8]: 28%
- inhibition in vivo at 20 mg/kg [9]: 24%
- inhibition in vivo at 20 mg/kg [10]: 15%
- Activity [27]: inactive
- Activity [28]: inactive
- Activity [29]: inactive
- UI [30]: 8.54
- inhibition [31]: 52.6%
- inhibition [32]: 46.7%
- inhibition [33]: 38.3%

SMILES: CC(C)Cc1ccc(C(C)c2nnc3sc(-c4ccc([N+](=O)[O-])cc4Cl)nn23)cc1 (stereo not drawn)
- inhibition [2]: 1.71%
- Activity [3]: 41.61%
- Activity [4]: 31.79%
- Activity [5]: 17.34%
- inhibition in vivo at 20 mg/kg [6]: 69%
- inhibition in vivo at 20 mg/kg [7]: 67%
- inhibition in vivo at 20 mg/kg [8]: 67%
- inhibition in vivo at 20 mg/kg [9]: 59%
- inhibition in vivo at 20 mg/kg [10]: 4%

SMILES: Cc1cc(C(C)(C)C)c(O)c(C(C)(C)C)c1
- inhibition [17]: 72.5%
- inhibition [23]: 68.3%
- inhibition [2]: 84.8%
- inhibition [31]: 62.2%

SMILES: CC(C)=CCN1CC[C@@]2(C)c3cc(O)ccc3C[C@@H]1[C@@H]2C (racemic)
- Activity [11]: 20.44%
- Activity [12]: 77.34%
- Activity [13]: 40.33%

SMILES: O=C(O)Cc1ccccc1Nc1c(Cl)cccc1Cl [DICLOFENAC]
- inhibition in vivo at 20 mg/kg [1]: 82%
- inhibition in vivo at 20 mg/kg [6]: 75%
- inhibition in vivo at 20 mg/kg [7]: 73%
- inhibition in vivo at 20 mg/kg [8]: 76%
- inhibition in vivo at 20 mg/kg [9]: 80%
- inhibition in vivo at 20 mg/kg [10]: 65%

SMILES: Cc1nn2c(C(C)c3ccc(CC(C)C)cc3)nnc2s1 (stereo not drawn)
- inhibition in vivo at 20 mg/kg [1]: 64%
- inhibition [2]: 7.9%
- Activity [3]: 42.66%
- Activity [4]: 32%
- Activity [5]: 26.66%
- inhibition in vivo at 20 mg/kg [6]: 62%
- inhibition in vivo at 20 mg/kg [7]: 56%
- inhibition in vivo at 20 mg/kg [8]: 58%
- inhibition in vivo at 20 mg/kg [9]: 62%
- inhibition in vivo at 20 mg/kg [10]: 43%

SMILES: CC(C)Cc1ccc(C(C)c2nnc3sc(-c4ccccc4Cl)nn23)cc1 (stereo not drawn)
- inhibition in vivo at 20 mg/kg [1]: 64%
- inhibition [2]: 4.46%
- Activity [3]: 78.2%
- Activity [4]: 39.74%
- Activity [5]: 19.23%
- inhibition in vivo at 20 mg/kg [6]: 59%
- inhibition in vivo at 20 mg/kg [7]: 58%
- inhibition in vivo at 20 mg/kg [8]: 59%
- inhibition in vivo at 20 mg/kg [9]: 57%
- inhibition in vivo at 20 mg/kg [10]: 43%
